Test results reported in patent publication US7858635B2 (priority 2005, dated 2010).

How the values were obtained:
M4 muscarinic receptor = molecular target: T1, M4 muscarinic receptor (Homo sapiens, UniProt P08173); assay: Functional mobilization of intracellular calcium (FLIPR, Fluo-3), M4-CHO cells; type: cell-based; conditions: compound nos. 1-454; for Emax / M4 Efficacy: 100% efficacy is the maximum response obtained with the Carbachol control; for Emax: read-out: M4 Efficacy; for M4 Activity: M4-CHO cells, calcium mobilization
T1 construct: expressed in transfected cells; host or cells: CHO cells (M4-CHO, under puromycin, zeocin and blasticidin selection)
T1 sequence (P08173 1-479): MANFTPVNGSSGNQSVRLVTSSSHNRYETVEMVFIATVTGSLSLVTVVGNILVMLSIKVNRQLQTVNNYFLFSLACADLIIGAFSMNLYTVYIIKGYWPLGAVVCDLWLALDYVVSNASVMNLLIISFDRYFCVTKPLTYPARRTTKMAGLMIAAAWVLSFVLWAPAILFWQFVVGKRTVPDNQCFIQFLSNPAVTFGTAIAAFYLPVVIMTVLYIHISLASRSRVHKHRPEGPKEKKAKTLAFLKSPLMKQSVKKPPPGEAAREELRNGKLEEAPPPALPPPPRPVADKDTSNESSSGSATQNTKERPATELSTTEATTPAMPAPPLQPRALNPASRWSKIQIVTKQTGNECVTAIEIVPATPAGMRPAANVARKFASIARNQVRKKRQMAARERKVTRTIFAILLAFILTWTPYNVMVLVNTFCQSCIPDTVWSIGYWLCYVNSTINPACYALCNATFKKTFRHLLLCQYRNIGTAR
Method in brief: (§1)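 Fluo-3 read-out, ex 488/em 540 nm, 60 sec on FLIPR 3. For agonist mode, compound added directly; for inhibition, 15 min compound pre-incubation before carbachol at EC80 (added as a 3× solution), or co-application. Buffer pH 7.4 with 1 mM probenecid; DMSO 0.5%.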

M1 muscarinic receptor = molecular target: T2, M1 muscarinic receptor (Homo sapiens, UniProt P11229); assay: Functional mobilization of intracellular calcium (FLIPR, Fluo-3), M1-CHO cells; type: cell-based; conditions: compound nos. 1-454; for Emax / M1 Efficacy: 100% efficacy is the maximum response obtained with the Carbachol control; for Emax: read-out: M1 Efficacy; for M1 Activity: M1-CHO cells, calcium mobilization
T2 construct: expressed in transfected cells; host or cells: CHO cells (M1-CHO, under zeocin and G418 selection)
T2 sequence (P11229 1-460): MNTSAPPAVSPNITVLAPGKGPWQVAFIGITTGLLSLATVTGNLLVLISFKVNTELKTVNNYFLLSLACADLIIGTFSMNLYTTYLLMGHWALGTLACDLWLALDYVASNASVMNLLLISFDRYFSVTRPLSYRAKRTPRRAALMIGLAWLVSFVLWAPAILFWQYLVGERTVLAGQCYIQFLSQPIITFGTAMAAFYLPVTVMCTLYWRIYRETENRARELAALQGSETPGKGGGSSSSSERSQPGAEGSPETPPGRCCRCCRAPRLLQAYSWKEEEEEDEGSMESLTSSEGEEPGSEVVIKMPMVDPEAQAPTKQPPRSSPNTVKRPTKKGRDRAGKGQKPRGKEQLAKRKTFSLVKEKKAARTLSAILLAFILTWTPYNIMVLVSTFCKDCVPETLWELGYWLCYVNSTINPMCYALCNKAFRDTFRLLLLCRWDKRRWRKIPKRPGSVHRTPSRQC
Method in brief: as §1

Compound | Emax (M4 muscarinic receptor) | M4 Activity (M4 muscarinic receptor) | Emax (M1 muscarinic receptor) | M1 Activity (M1 muscarinic receptor) | M4 Efficacy (M4 muscarinic receptor) | M1 Efficacy (M1 muscarinic receptor)
CCOC(=O)N1CCC(N2CCC3(CC2)CN(C(C)=O)c2ccc(-c4ccc(C)cc4)cc23)CC1 [compound 58, ethyl 4-(1-acetyl-5-p-tolylspiro[indoline-3,4′-piperidine]-1′-yl)piperidine-1-carboxylate] | 55 to 70% | ++ (activity was measured to be between 0.1 μM and 4.0 μM) | 65 to 85% | +++ (activity was measured to be less than or equal to 0.7 μM) |  | 
CCOC(=O)N1C2CCC1CC(N1CCC3(CC1)CN(C(=O)c1snnc1C)c1ccc(F)cc13)C2 (stereo not shown) [compound 59] | 55 to 70% | ++ (activity was measured to be between 0.1 μM and 4.0 μM) | < 65% | +++ (activity was measured to be less than or equal to 0.7 μM) |  | 
CCOC(=O)N1CCC(CN2CCC3(CC2)CN(C(C)=O)c2ccc(F)cc23)CC1 [compound 60] | 55 to 70% | + (activity was measured to be greater than or equal to 4.0 μM) | 65 to 85% | ++ (activity was measured to be between 0.7 μM and 3.0 μM) |  | 
CCOC(=O)N1CCC(N2CCC3(CC2)C[C@H](NC(C)=O)c2ccccc23)CC1 [compound 61] |  | ++ (activity was measured to be between 0.1 μM and 4.0 μM) |  | +++ (activity was measured to be less than or equal to 0.7 μM) | ++ (efficacy was calculated to be between 70% and 55%) | ++ (efficacy was calculated to be between 85% and 65%)
C#CCCOC(=O)N1CCC(N2CCC3(CC2)CN(C(C)=O)c2ccc(F)cc23)CC1 [compound 62] | 55 to 70% | ++ (activity was measured to be between 0.1 μM and 4.0 μM) | < 65% | +++ (activity was measured to be less than or equal to 0.7 μM) |  | 
CCOC(=O)N1CCC(N2CCC3(CC2)CN(C(=O)OCC(C)(C)C)c2ccc(F)cc23)CC1 [compound 63] | < 55% | + (activity was measured to be greater than or equal to 4.0 μM) | < 65% | +++ (activity was measured to be less than or equal to 0.7 μM) |  | 
COCCOC(=O)N1CCCC(N2CCC3(CC2)CN(C(C)=O)c2ccc(F)cc23)CC1 (stereo not shown) [compound 65] | < 55% | + (activity was measured to be greater than or equal to 4.0 μM) | 65 to 85% | ++ (activity was measured to be between 0.7 μM and 3.0 μM) |  | 
CCOC(=O)N1CCC(N2CCC3(CC2)CN(C(=O)c2ccc(OC(F)(F)F)cc2)c2ccc(F)cc23)CC1 [compound 66] | > 70% | +++ (activity was measured to be less than or equal to 0.1 μM) | > 85% | +++ (activity was measured to be less than or equal to 0.7 μM) |  | 
CC(=O)N1CC2(CCN(C3CC4CCC(C3)N4C(=O)O[C@@H]3CCOC3)CC2)c2cc(F)ccc21 (stereo partly shown) [compound 67] | < 55% | ++ (activity was measured to be between 0.1 μM and 4.0 μM) | < 65% | +++ (activity was measured to be less than or equal to 0.7 μM) |  | 
O=C(OC1CCC1)N1C2CCC1CC(N1CCC3(CCc4ccccc43)CC1)C2 (stereo not shown) [compound 68] | < 55% | + (activity was measured to be greater than or equal to 4.0 μM) | < 65% | ++ (activity was measured to be between 0.7 μM and 3.0 μM) |  | 
O=C(C1CCC1)N1CC2(CCN(C3CC4CCC(C3)N4C(=O)O[C@@H]3CCOC3)CC2)c2cc(F)ccc21 (stereo partly shown) [compound 69] | < 55% | ++ (activity was measured to be between 0.1 μM and 4.0 μM) | < 65% | ++ (activity was measured to be between 0.7 μM and 3.0 μM) |  | 
CS(=O)(=O)N[C@H]1CC2(CCN(C[C@H]3C[C@H]4C=C[C@H]3C4)CC2)c2ccccc21 [compound 70] | 55 to 70% | + (activity was measured to be greater than or equal to 4.0 μM) | 65 to 85% | ++ (activity was measured to be between 0.7 μM and 3.0 μM) |  | 
COCCOC(=O)N1C2CCC1CC(N1CCC3(CC1)C(=O)Nc1ccccc13)C2 (stereo not shown) [compound 71] | < 55% | ++ (activity was measured to be between 0.1 μM and 4.0 μM) | < 65% | +++ (activity was measured to be less than or equal to 0.7 μM) |  | 
Cc1ccc2c(c1)C1(CCN(C3C4CCCC3CCC4)CC1)CN2 (stereo not shown) [compound 72] | 55 to 70% | ++ (activity was measured to be between 0.1 μM and 4.0 μM) | 65 to 85% | +++ (activity was measured to be less than or equal to 0.7 μM) |  | 
CCOC(=O)N1C2CCC1CC(N1CCC3(CC1)CN(C(=O)c1cc(C)oc1C)c1ccc(F)cc13)C2 (stereo not shown) [compound 73] | 55 to 70% | ++ (activity was measured to be between 0.1 μM and 4.0 μM) | 65 to 85% | +++ (activity was measured to be less than or equal to 0.7 μM) |  | 
CCCc1ccc2c(c1)C1(CCN(C3CCN(C(=O)OCC)CC3)CC1)CN2C(C)=O [compound 74] | 55 to 70% | ++ (activity was measured to be between 0.1 μM and 4.0 μM) | 65 to 85% | +++ (activity was measured to be less than or equal to 0.7 μM) |  | 
CC(=O)N1CC2(CCN(CC3CCCOC3)CC2)c2cc(F)ccc21 (stereo not shown) [compound 75] | 55 to 70% | ++ (activity was measured to be between 0.1 μM and 4.0 μM) | < 65% | +++ (activity was measured to be less than or equal to 0.7 μM) |  | 
COCCOC(=O)N1C2CCC1CC(N1CCC3(CC1)CN(C(C)=O)c1ccc(F)cc13)C2 (stereo not shown) [compound 76] | 55 to 70% | ++ (activity was measured to be between 0.1 μM and 4.0 μM) | 65 to 85% | +++ (activity was measured to be less than or equal to 0.7 μM) |  | 
CCOC(=O)N1CCC(N2CCC3(CC2)CN(C(=O)c2ccc(F)cc2)c2ccc(F)cc23)CC1 [compound 77] | < 55% | ++ (activity was measured to be between 0.1 μM and 4.0 μM) | 65 to 85% | +++ (activity was measured to be less than or equal to 0.7 μM) |  | 
CCOC(=O)N1CCC(N2CCC3(CC2)CN(C(C)=O)c2ccc(-c4ccccc4C)cc23)CC1 [compound 78] | < 55% | ++ (activity was measured to be between 0.1 μM and 4.0 μM) | 65 to 85% | +++ (activity was measured to be less than or equal to 0.7 μM) |  | 
CCCOC(=O)N1CCC(N2CCC3(CC2)CN(C(C)=O)c2ccc(F)cc23)CC1 [compound 79] | < 55% | + (activity was measured to be greater than or equal to 4.0 μM) | < 65% | ++ (activity was measured to be between 0.7 μM and 3.0 μM) |  | 
COCCOC(=O)N1CC2(CCN(C3CC4CCC(C3)N4C(=O)O[C@H]3CCOC3)CC2)c2cc(F)ccc21 (stereo partly shown) [compound 80] | < 55% | ++ (activity was measured to be between 0.1 μM and 4.0 μM) | < 65% | ++ (activity was measured to be between 0.7 μM and 3.0 μM) |  | 
C#CCOC(=O)N1CCC(N2CCC3(CC2)CN(C(C)=O)c2ccc(C)cc23)CC1 [compound 81] | < 55% | + (activity was measured to be greater than or equal to 4.0 μM) | < 65% | ++ (activity was measured to be between 0.7 μM and 3.0 μM) |  | 
CC(=O)N1CC2(CCN(CC3CCN(C(=O)O[C@@H]4CCOC4)CC3)CC2)c2cc(F)ccc21 [compound 82] |  | ++ (activity was measured to be between 0.1 μM and 4.0 μM) |  | +++ (activity was measured to be less than or equal to 0.7 μM) | ++ (efficacy was calculated to be between 70% and 55%) | ++ (efficacy was calculated to be between 85% and 65%)
CCOC(=O)N1C2CCC1CC(N1CCC3(CC1)CN(C(=O)Nc1c(C)noc1C)c1ccc(F)cc13)C2 (stereo not shown) [compound 83] | < 55% | + (activity was measured to be greater than or equal to 4.0 μM) | < 65% | +++ (activity was measured to be less than or equal to 0.7 μM) |  | 
